Experimental data from paper PMC3133966 (Nature neuroscience, 2011).

Legend:
[1] = target: T1, KCNQ5 (Kv7.5); presynaptic KCNQ5 homomers (Rattus norvegicus, UniProt F1LY25); assay: whole-cell patch clamp of rat calyx of Held, outward K+ current; type: cell-based; details: read-out: % inhibition at 100 μM
[2] = target: T1, KCNQ5 (Kv7.5); presynaptic KCNQ5 homomers; assay: as above; type: cell-based; details: read-out: % of control current remaining at 10 μM

T1 sequence (F1LY25 1-951): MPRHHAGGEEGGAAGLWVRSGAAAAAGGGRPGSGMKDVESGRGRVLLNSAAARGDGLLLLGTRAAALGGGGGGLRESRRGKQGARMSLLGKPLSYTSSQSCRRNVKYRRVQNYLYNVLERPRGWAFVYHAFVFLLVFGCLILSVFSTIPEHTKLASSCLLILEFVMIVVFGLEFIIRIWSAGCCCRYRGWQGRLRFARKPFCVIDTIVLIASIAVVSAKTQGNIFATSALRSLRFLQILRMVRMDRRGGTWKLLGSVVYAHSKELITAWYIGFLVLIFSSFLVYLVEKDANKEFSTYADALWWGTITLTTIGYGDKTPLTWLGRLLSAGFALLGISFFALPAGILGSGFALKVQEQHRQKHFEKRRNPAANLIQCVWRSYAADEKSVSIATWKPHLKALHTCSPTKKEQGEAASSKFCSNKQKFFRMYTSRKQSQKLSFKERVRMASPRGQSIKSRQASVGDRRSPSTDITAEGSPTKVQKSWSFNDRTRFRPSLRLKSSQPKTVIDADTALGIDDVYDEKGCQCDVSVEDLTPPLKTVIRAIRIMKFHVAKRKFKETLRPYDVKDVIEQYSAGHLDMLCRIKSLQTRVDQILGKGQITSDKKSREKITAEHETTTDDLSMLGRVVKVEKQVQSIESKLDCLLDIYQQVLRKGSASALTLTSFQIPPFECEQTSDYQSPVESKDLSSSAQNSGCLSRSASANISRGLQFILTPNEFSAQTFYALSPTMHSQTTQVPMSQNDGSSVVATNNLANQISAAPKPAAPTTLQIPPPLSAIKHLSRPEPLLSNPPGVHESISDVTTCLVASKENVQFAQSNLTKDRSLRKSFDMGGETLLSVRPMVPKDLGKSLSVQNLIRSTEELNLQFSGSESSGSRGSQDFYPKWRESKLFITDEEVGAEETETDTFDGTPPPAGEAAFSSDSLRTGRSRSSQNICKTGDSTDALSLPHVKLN

Compound	inhibition at 100 µM [1]	remaining activity at 10 µM [2]
O=C(O)Cc1ccccc1Nc1c(Cl)cccc1Cl [diclofenac]	53 ± 4%	–
O=C1N(c2ccccc2)c2ccccc2C1(Cc1ccncc1)Cc1ccncc1 [linopirdine]	–	17 ± 4%
